{
  "source": "patent US8841274B2",
  "about": "“Protein arginine N-methyltransferase-5 method of cancer treatment” (priority 2009, dated 2014)",
  "key": {"[1]": {"tested_on": "p73-luciferase or cyclinE-luciferase", "assay": "Reporter assay with E2F-responsive promoters", "assay_type": "cell-based", "details": "U2OS cells, 48 h, equivalent protein level; compared to wild-type E2F-1; n=3", "method": "To further explore the role of arginine methylation in the transcription properties of E2F-1, wild-type E2F-1 was compared with the KK and KKK mutants in a reporter-based transfection assay, using E2F-responsive promoters derived from E2F target genes. The assay was performed under conditions in which each mutant protein was expressed at an equivalent level to wild-type E2F-1 (FIG. 4aii and bii), thus ruling out any difference in activity that could be attributed to protein levels. […] FIGS. 4a and b show the transcription properties of wild-type E2F-1, KK and KKK mutants. U2OS cells were transfected with expression vectors encoding WT or mutant E2F-1 protein, together with p73-luciferase (A) or cyclinE-luciferase (B) for 48 h as indicated, and pCMV-βgal to monitor transfection efficiency. Relative luciferase activity (luciferase/βgal) is shown together with expression level of ectopic proteins; n=3. […] PRMT5 (P) or control (C) non-targeting siRNA was transfected into U2OS cells together with p73-luciferase (i) or cyclinE-luciferase (ii) for 48 h, together with pCMV-βgal to monitor transfection efficiency. Relative luciferase activity is shown together with expression level of the ectopic proteins.\nCells were transfected with expression vectors (1 μg) encoding WT or the mutant E2F-1 proteins as indicated with E2F responsive luciferase reporters, namely p73-luciferase or cyclinE-luciferase, together with pCMV-βgal to monitor transfection efficiency. Cells were harvested, lysed 48 h post-transfection and luciferase activity measured as previously described (Janson et al 2008)."}, "U2OS cells": {"tested_on": "U2OS cells", "assay": "Apoptosis (sub-G1) by FACS in U2OS cells", "assay_type": "cell-based", "details": "U2OS cells, expression vectors 48 h; relative to wild-type E2F-1; n=2", "method": "Whether arginine methylation influences E2F-1-dependent apoptosis was investigated by comparing the ability of wild-type E2F-1 to the KK and KKK mutants to induce cells with a sub-G1 DNA content (Stevens et al 2003). […] U2OS cells were transfected with expression vectors encoding wild-type E2F-1, KK and KKK as indicated for 48 h and analysed by FACS as described. The graph represents the relative change in sub-G1 populations compared to the empty vector control treatment; n=2.\nThe graph (i) represents the relative number of sub-G I cells (compared to the control treatment) in the indicated conditions; and (ii) the level of PRMT5 and E2F-1; n=3.\nPRMT5 (P) or control (C) non-targeting siRNA (25 nM) was transfected into HCT116 p53+/+ (i), HCT116 p53−/− (ii) or U2OS (iii) cells and the cells were harvested 72 h post-transfection and analysed by FACS. The graph represents the actual number of sub-G1 cells in the indicated conditions, and the immunoblot the level of PRMT5 and actin control; n=3.\nPRMT5 (P), E2F-1 (E) or control (C) non-targeting siRNA was transfected into U2OS cells and harvested 72 h post-transfection and analysed by FACS as described.\nCells were transfected with the indicated expression vectors together with pBB14-GFP (for 48 h) to monitor transfection efficiency or siRNA (for 48 h or 72 h) with or without treatment of the DNA damage agent for the last 16 h. Then, cells were fixed and stained with propidium iodide and analyzed by Flow Cytometry."}},
  "data": [
    {"substance": "KKK: methylation-defective E2F-1 protein containing the mutations R109K, R111K and R113K", "values": [
      {"measurement": "transcriptional activity (relative luciferase activity)", "setting": "[1]", "value": "increased transcriptional activity"},
      {"measurement": "apoptosis (sub-G1 population)", "setting": "U2OS cells", "value": "increased levels of apoptosis"}
    ]}
  ]
}
